Results from patent publication US20260262643A1, “HERBICIDAL BENZOXAZINES” (FMC CORPORATION, priority 2022, published 2026).

Experiments:
wheat [1] = assay: Test C preemergence; format: in vivo, Triticum aestivum; conditions: for Wheat plant response rating: 500 g ai/ha, preemergence, 0 to 100 scale (0 no effect, 100 complete control); for Plant response rating, Wheat: Preemergence, 125 g ai/ha, 0 to 100 scale, 0 no effect, 100 complete control
Outline: (§1)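 Greenhouse herbicide screen, 10-day duration. Test chemicals in solvent/surfactant blend were sprayed onto soil at sowing (pre) or onto 2–10 cm seedlings at one to two leaves (post); injury scored visually against controls, 0 no effect to 100 complete control.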

wheat [2] = assay: Test C postemergence; format: in vivo, Triticum aestivum; conditions: 10 days, 0 to 100 scale (0 no effect, 100 complete control)
Outline: as §1

barnyardgrass [3] = assay: Test C preemergence; format: in vivo, Echinochloa crusgalli; conditions: for Barnyardgrass plant response rating: 500 g ai/ha, preemergence, 0 to 100 scale (0 no effect, 100 complete control); for Plant response rating, Barnyardgrass: Preemergence, 125 g ai/ha, 0 to 100 scale, 0 no effect, 100 complete control
Outline: as §1

ryegrass, Italian [4] = assay: Test C postemergence; format: in vivo, Lolium multiflorum; conditions: 10 days, 0 to 100 scale (0 no effect, 100 complete control)
Outline: as §1

pigweed, palmer [5] = assay: Test C postemergence; format: in vivo, Amaranthus palmeri; conditions: 10 days, 0 to 100 scale (0 no effect, 100 complete control)
Outline: as §1

blackgrass [6] = assay: Test C postemergence; format: in vivo, Alopecurus myosuroides; conditions: 10 days, 0 to 100 scale (0 no effect, 100 complete control)
Outline: as §1

barnyardgrass [7] = assay: Test C postemergence; format: in vivo, Echinochloa crusgalli; conditions: 10 days, 0 to 100 scale (0 no effect, 100 complete control)
Outline: as §1

sedge, umbrella = assay: Test D flooded paddy test; format: in vivo, Cyperus difformis; conditions: 250 g ai/ha, applied to paddy water, visual rating after 13 to 14 days, scale 0 to 100 (0 no effect, 100 complete control)
Outline: (§2)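 Plants at the 2-leaf stage were grown in pots flooded to 3 cm, and compound was applied directly into the paddy water, with depth kept throughout. After 13–14 days in a greenhouse, injury was rated visually against untreated controls on a 0–100 scale (100 = complete control); a dash means not tested.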

rice = assay: Test D flooded paddy test; format: in vivo, Oryza sativa; conditions: 250 g ai/ha, applied to paddy water, visual rating after 13 to 14 days, scale 0 to 100 (0 no effect, 100 complete control)
Outline: as §2

oat, wild [8] = assay: Test C postemergence; format: in vivo, Avena fatua; conditions: 10 days, 0 to 100 scale (0 no effect, 100 complete control)
Outline: as §1

kochia [9] = assay: Test C postemergence; format: in vivo, Bassia scoparia; conditions: 10 days, 0 to 100 scale (0 no effect, 100 complete control)
Outline: as §1

oat, wild [10] = assay: Test C preemergence; format: in vivo, Avena fatua; conditions: for Oat, Wild plant response rating: 500 g ai/ha, preemergence, 0 to 100 scale (0 no effect, 100 complete control); for Plant response rating, Oat, Wild: Preemergence, 125 g ai/ha, 0 to 100 scale, 0 no effect, 100 complete control
Outline: as §1

soybean [11] = assay: Test C preemergence; format: in vivo, Glycine max; conditions: for Soybean plant response rating: 500 g ai/ha, preemergence, 0 to 100 scale (0 no effect, 100 complete control); for Plant response rating, Soybean: Preemergence, 125 g ai/ha, 0 to 100 scale, 0 no effect, 100 complete control
Outline: as §1

pigweed, palmer [12] = assay: Test C preemergence; format: in vivo, Amaranthus palmeri; conditions: for Pigweed, Palmer plant response rating: 500 g ai/ha, preemergence, 0 to 100 scale (0 no effect, 100 complete control); for Plant response rating, Pigweed, Palmer: Preemergence, 125 g ai/ha, 0 to 100 scale, 0 no effect, 100 complete control
Outline: as §1

soybean [13] = assay: Test C postemergence; format: in vivo, Glycine max; conditions: 10 days, 0 to 100 scale (0 no effect, 100 complete control)
Outline: as §1

ducksalad = assay: Test D flooded paddy test; format: in vivo, Heteranthera limosa; conditions: 250 g ai/ha, applied to paddy water, visual rating after 13 to 14 days, scale 0 to 100 (0 no effect, 100 complete control)
Outline: as §2

kochia [14] = assay: Test C preemergence; format: in vivo, Bassia scoparia; conditions: for Kochia plant response rating: 500 g ai/ha, preemergence, 0 to 100 scale (0 no effect, 100 complete control); for Plant response rating, Kochia: Preemergence, 125 g ai/ha, 0 to 100 scale, 0 no effect, 100 complete control
Outline: as §1

green foxtail [15] = assay: Test C postemergence; format: in vivo, Setaria viridis; conditions: 10 days, 0 to 100 scale (0 no effect, 100 complete control)
Outline: as §1

green foxtail [16] = assay: Test C preemergence; format: in vivo, Setaria viridis; conditions: for Foxtail, Green plant response rating: 500 g ai/ha, preemergence, 0 to 100 scale (0 no effect, 100 complete control); for Plant response rating, Foxtail, Green: Preemergence, 125 g ai/ha, 0 to 100 scale, 0 no effect, 100 complete control
Outline: as §1

ragweed [17] = assay: Test C preemergence; format: in vivo, Ambrosia artemisiifolia; conditions: for Ragweed plant response rating: 500 g ai/ha, preemergence, 0 to 100 scale (0 no effect, 100 complete control); for Plant response rating, Ragweed: Preemergence, 125 g ai/ha, 0 to 100 scale, 0 no effect, 100 complete control
Outline: as §1

blackgrass [18] = assay: Test C preemergence; format: in vivo, Alopecurus myosuroides; conditions: for Blackgrass plant response rating: 500 g ai/ha, preemergence, 0 to 100 scale (0 no effect, 100 complete control); for Plant response rating, Blackgrass: Preemergence, 125 g ai/ha, 0 to 100 scale, 0 no effect, 100 complete control
Outline: as §1

barnyardgrass [19] = assay: Test D flooded paddy test; format: in vivo, Echinochloa crus-galli; conditions: 250 g ai/ha, applied to paddy water, visual rating after 13 to 14 days, scale 0 to 100 (0 no effect, 100 complete control)
Outline: as §2

horseweed = assay: Test C postemergence; format: in vivo, Erigeron canadensis; conditions: 10 days, 0 to 100 scale (0 no effect, 100 complete control)
Outline: as §1

corn [20] = assay: Test C preemergence; format: in vivo, Zea mays; conditions: for Corn plant response rating: 500 g ai/ha, preemergence, 0 to 100 scale (0 no effect, 100 complete control); for Plant response rating, Corn: Preemergence, 125 g ai/ha, 0 to 100 scale, 0 no effect, 100 complete control
Outline: as §1

ryegrass, Italian [21] = assay: Test C preemergence; format: in vivo, Lolium multiflorum; conditions: for Ryegrass, Italian plant response rating: 500 g ai/ha, preemergence, 0 to 100 scale (0 no effect, 100 complete control); for Plant response rating, Ryegrass, Italian: Preemergence, 125 g ai/ha, 0 to 100 scale, 0 no effect, 100 complete control
Outline: as §1

corn [22] = assay: Test C postemergence; format: in vivo, Zea mays; conditions: 10 days, 0 to 100 scale (0 no effect, 100 complete control)
Outline: as §1

galium = assay: Test C postemergence; format: in vivo, Galium aparine; conditions: 10 days, 0 to 100 scale (0 no effect, 100 complete control)
Outline: as §1

ragweed [23] = assay: Test C postemergence; format: in vivo, Ambrosia artemisiifolia; conditions: 10 days, 0 to 100 scale (0 no effect, 100 complete control)
Outline: as §1

CC(C)c1ncn(-c2cccc(C(=O)N3CC(C(F)(F)F)Oc4c(Cl)cccc43)c2)n1 (centres unmarked) [Compound 348]
10: Plant response rating, Wheat (wheat [2]; Postemergence, 125 g ai/ha) | Plant response rating, Barnyardgrass (barnyardgrass [7]; Postemergence, 125 g ai/ha) | Plant response rating, Corn (corn [22]; Postemergence, 125 g ai/ha)
30: Plant response rating, Wheat (wheat [2]; 500 g ai/ha, postemergence) | Plant response rating, Ryegrass, Italian (ryegrass, Italian [4]; Postemergence, 125 g ai/ha) | Plant response rating, Barnyardgrass (Flood) (barnyardgrass [19]) | Plant response rating, Corn (corn [22]; 500 g ai/ha, postemergence) | Plant response rating, Ragweed (ragweed [23]; Postemergence, 125 g ai/ha)
75: Plant response rating, Ducksalad (Flood) (ducksalad)
20: Plant response rating, Oat, Wild (oat, wild [8]; Postemergence, 125 g ai/ha) | Ragweed plant response rating (ragweed [17]) | Plant response rating, Ragweed (ragweed [17])
80: Wheat plant response rating (wheat [1]) | Soybean plant response rating (soybean [11])
0: Plant response rating, Rice (Flood) (rice) | Plant response rating, Horseweed (horseweed; Postemergence, 125 g ai/ha) | Corn plant response rating (corn [20]) | Plant response rating, Corn (corn [20])
90: Plant response rating, Pigweed, Palmer (pigweed, palmer [5]; Postemergence, 125 g ai/ha) | Oat, Wild plant response rating (oat, wild [10]) | Plant response rating, Kochia (kochia [14]) | Blackgrass plant response rating (blackgrass [18]) | Plant response rating, Ryegrass, Italian (ryegrass, Italian [21])
50: Plant response rating, Wheat (wheat [1]) | Plant response rating, Foxtail, Green (green foxtail [15]; Postemergence, 125 g ai/ha) | Plant response rating, Blackgrass (blackgrass [18])
45: Plant response rating, Sedge, Umbrella (Flood) (sedge, umbrella)
100: Barnyardgrass plant response rating (barnyardgrass [3]) | Plant response rating, Pigweed, Palmer (pigweed, palmer [5]; 500 g ai/ha, postemergence) | Plant response rating, Blackgrass (blackgrass [6]; 500 g ai/ha, postemergence) | Plant response rating, Kochia (kochia [9]; 500 g ai/ha, postemergence) | Pigweed, Palmer plant response rating (pigweed, palmer [12]) | Plant response rating, Pigweed, Palmer (pigweed, palmer [12]) | Plant response rating, Soybean (soybean [13]; 500 g ai/ha, postemergence) | Plant response rating, Soybean (soybean [13]; Postemergence, 125 g ai/ha) | Kochia plant response rating (kochia [14]) | Foxtail, Green plant response rating (green foxtail [16]) | Plant response rating, Foxtail, Green (green foxtail [16]) | Ryegrass, Italian plant response rating (ryegrass, Italian [21]) | Plant response rating, Galium (galium; 500 g ai/ha, postemergence) | Plant response rating, Galium (galium; Postemergence, 125 g ai/ha)
60: Plant response rating, Barnyardgrass (barnyardgrass [3]) | Plant response rating, Oat, Wild (oat, wild [8]; 500 g ai/ha, postemergence) | Plant response rating, Oat, Wild (oat, wild [10]) | Plant response rating, Ragweed (ragweed [23]; 500 g ai/ha, postemergence)
70: Plant response rating, Ryegrass, Italian (ryegrass, Italian [4]; 500 g ai/ha, postemergence) | Plant response rating, Blackgrass (blackgrass [6]; Postemergence, 125 g ai/ha) | Plant response rating, Kochia (kochia [9]; Postemergence, 125 g ai/ha) | Plant response rating, Foxtail, Green (green foxtail [15]; 500 g ai/ha, postemergence)
40: Plant response rating, Barnyardgrass (barnyardgrass [7]; 500 g ai/ha, postemergence) | Plant response rating, Soybean (soybean [11]) | Plant response rating, Horseweed (horseweed; 500 g ai/ha, postemergence)

Cc1ncn(-c2ccc(C)c(C(=O)N3CC(C(F)(F)F)Oc4c(Cl)cccc43)c2)n1 (centres unmarked) [Compound 349]
60: Corn plant response rating (corn [20])
95: Plant response rating, Sedge, Umbrella (Flood) (sedge, umbrella)
80: Plant response rating, Wheat (wheat [2]; 500 g ai/ha, postemergence) | Plant response rating, Ryegrass, Italian (ryegrass, Italian [4]; 500 g ai/ha, postemergence) | Plant response rating, Kochia (kochia [9]; Postemergence, 125 g ai/ha) | Plant response rating, Kochia (kochia [14]) | Ragweed plant response rating (ragweed [17]) | Blackgrass plant response rating (blackgrass [18]) | Plant response rating, Corn (corn [22]; Postemergence, 125 g ai/ha)
10: Plant response rating, Horseweed (horseweed; Postemergence, 125 g ai/ha)
30: Plant response rating, Wheat (wheat [2]; Postemergence, 125 g ai/ha) | Plant response rating, Barnyardgrass (barnyardgrass [7]; Postemergence, 125 g ai/ha) | Plant response rating, Oat, Wild (oat, wild [8]; Postemergence, 125 g ai/ha) | Plant response rating, Ragweed (ragweed [23]; Postemergence, 125 g ai/ha)
100: Barnyardgrass plant response rating (barnyardgrass [3]) | Plant response rating, Blackgrass (blackgrass [6]; 500 g ai/ha, postemergence) | Soybean plant response rating (soybean [11]) | Pigweed, Palmer plant response rating (pigweed, palmer [12]) | Plant response rating, Pigweed, Palmer (pigweed, palmer [12]) | Plant response rating, Soybean (soybean [13]; 500 g ai/ha, postemergence) | Plant response rating, Soybean (soybean [13]; Postemergence, 125 g ai/ha) | Foxtail, Green plant response rating (green foxtail [16]) | Plant response rating, Foxtail, Green (green foxtail [16]) | Ryegrass, Italian plant response rating (ryegrass, Italian [21]) | Plant response rating, Ryegrass, Italian (ryegrass, Italian [21]) | Plant response rating, Galium (galium; 500 g ai/ha, postemergence) | Plant response rating, Galium (galium; Postemergence, 125 g ai/ha)
90: Plant response rating, Pigweed, Palmer (pigweed, palmer [5]; 500 g ai/ha, postemergence) | Plant response rating, Blackgrass (blackgrass [6]; Postemergence, 125 g ai/ha) | Plant response rating, Barnyardgrass (barnyardgrass [7]; 500 g ai/ha, postemergence) | Plant response rating, Kochia (kochia [9]; 500 g ai/ha, postemergence) | Oat, Wild plant response rating (oat, wild [10]) | Kochia plant response rating (kochia [14]) | Plant response rating, Foxtail, Green (green foxtail [15]; 500 g ai/ha, postemergence) | Plant response rating, Corn (corn [22]; 500 g ai/ha, postemergence)
50: Plant response rating, Ryegrass, Italian (ryegrass, Italian [4]; Postemergence, 125 g ai/ha) | Plant response rating, Pigweed, Palmer (pigweed, palmer [5]; Postemergence, 125 g ai/ha) | Plant response rating, Soybean (soybean [11]) | Plant response rating, Blackgrass (blackgrass [18]) | Plant response rating, Horseweed (horseweed; 500 g ai/ha, postemergence)
20: Plant response rating, Wheat (wheat [1]) | Plant response rating, Oat, Wild (oat, wild [10]) | Plant response rating, Ragweed (ragweed [17])
70: Wheat plant response rating (wheat [1]) | Plant response rating, Barnyardgrass (barnyardgrass [3]) | Plant response rating, Oat, Wild (oat, wild [8]; 500 g ai/ha, postemergence) | Plant response rating, Foxtail, Green (green foxtail [15]; Postemergence, 125 g ai/ha)
40: Plant response rating, Corn (corn [20]) | Plant response rating, Ragweed (ragweed [23]; 500 g ai/ha, postemergence)
0: Plant response rating, Rice (Flood) (rice) | Plant response rating, Ducksalad (Flood) (ducksalad) | Plant response rating, Barnyardgrass (Flood) (barnyardgrass [19])
